Tested on: mice
Experiment: Neuropharmacological Assay (SmartCube)
Type: in vivo
Conditions: for minimal effective dose: Mus musculus, MED = dose having 50% or more total activity in SmartCube, read-out: POTENCY (minimal effective dose, MED); for AD: ADHD (SmartCube probability) / AG: analgesic (SmartCube probability) / AX: anxiolytic (SmartCube probability) / CE: cognitive enhancer (SmartCube probability) / DP: anti-depressant (SmartCube probability) / MS: mood stabilizer (SmartCube probability) / PS: anti-psychotic (SmartCube probability) / SD: sedative hypnotic (SmartCube probability) / UN: uncharacterized CNS activity (SmartCube probability): mice, i.p. 15 min before test, most efficacious dose(s) of 3 doses
Method in brief: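 Compounds in NMP/PEG/propylene glycol given i.p. 15 min before automated video-based behavioral testing, at 3 doses; behavioral signature compared with a reference-compound database to give probability per drug class, reported at most efficacious dose. MED = dose (mpk) giving ≥50% total activity; doses typically 0.3–30 mpk.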

Structure (SMILES)	minimal effective dose [mg/kg]	AD: ADHD (SmartCube probability)	AG: analgesic (SmartCube probability)	AX: anxiolytic (SmartCube probability)	CE: cognitive enhancer (SmartCube probability)	DP: anti-depressant (SmartCube probability)	MS: mood stabilizer (SmartCube probability)	PS: anti-psychotic (SmartCube probability)	SD: sedative hypnotic (SmartCube probability)	UN: uncharacterized CNS activity (SmartCube probability)
CN(C)C[C@@H]1OCCc2cccc(F)c21 [Example 85, (R)-1-(8-fluoroisochroman-1-yl)-N,N-dimethylmethanamine]	< 3	+ (LOQ≤ + <5%)	+ (LOQ≤ + <5%)	+++ (25%≤ +++ <50%)	++ (5%≤ ++ <25%)	++ (5%≤ ++ <25%)	+ (LOQ≤ + <5%)	++ (5%≤ ++ <25%)	++ (5%≤ ++ <25%)	+++ (25%≤ +++ <50%)
CCNC[C@H]1OCCc2cccc(F)c21 [Example 86, (S)-N-((8-fluoroisochroman-1-yl)methyl)ethanamine]	10 to 30	++ (5%≤ ++ <25%)	+ (LOQ≤ + <5%)	++ (5%≤ ++ <25%)	++ (5%≤ ++ <25%)	++ (5%≤ ++ <25%)	+ (LOQ≤ + <5%)	++ (5%≤ ++ <25%)	+++ (25%≤ +++ <50%)	+ (LOQ≤ + <5%)
CCNC[C@@H]1OCCc2cccc(F)c21 [Example 87, (R)-N-((8-fluoroisochroman-1-yl)methyl)ethanamine]	< 3	+ (LOQ≤ + <5%)	++ (5%≤ ++ <25%)	++ (5%≤ ++ <25%)	+ (LOQ≤ + <5%)	++ (5%≤ ++ <25%)	+ (LOQ≤ + <5%)	++ (5%≤ ++ <25%)	+ (LOQ≤ + <5%)	++++ (50%≤ ++++)
CNC[C@H]1OCc2c(Cl)cccc21 [Example 92, (S)-1-(4-chloro-1,3-dihydroisobenzofuran-1-yl)-N-methylmethanamine]	10 to 30	+ (LOQ≤ + <5%)	++ (5%≤ ++ <25%)	++ (5%≤ ++ <25%)	++ (5%≤ ++ <25%)	++ (5%≤ ++ <25%)	+ (LOQ≤ + <5%)	+ (LOQ≤ + <5%)	++ (5%≤ ++ <25%)	+++ (25%≤ +++ <50%)
CNC[C@@H]1OCc2c(Cl)cccc21 [Example 93, (R)-1-(4-chloro-1,3-dihydroisobenzofuran-1-yl)-N-methyl-methanamine]	< 3	+++ (25%≤ +++ <50%)	++ (5%≤ ++ <25%)	+++ (25%≤ +++ <50%)	++ (5%≤ ++ <25%)	++ (5%≤ ++ <25%)	+ (LOQ≤ + <5%)	+ (LOQ≤ + <5%)	++ (5%≤ ++ <25%)	++++ (50%≤ ++++)

— patent US10196403B2, “Compounds and compositions and uses thereof” (Sunovion Pharmaceuticals Inc., priority 2016, dated 2019)
